Results published in publication PMC9032385, “A2A Adenosine Receptor Antagonists: Are Triazolotriazine and Purine Scaffolds Interchangeable?” (Molecules, 2022).
pKi: −log10 of the molar value.

Key:
human recombinant A1AR = biological target: T1, human recombinant A1AR (Homo sapiens, UniProt P30542); test: Radioligand binding at human A1AR ([3H]CCPA displacement, CHO cell membranes); conditions: displacement of [3H]CCPA, n = 3–5, means ± standard errors
T1 construct: expressed in transfected cells; membrane preparation
T1 sequence (P30542 1-326): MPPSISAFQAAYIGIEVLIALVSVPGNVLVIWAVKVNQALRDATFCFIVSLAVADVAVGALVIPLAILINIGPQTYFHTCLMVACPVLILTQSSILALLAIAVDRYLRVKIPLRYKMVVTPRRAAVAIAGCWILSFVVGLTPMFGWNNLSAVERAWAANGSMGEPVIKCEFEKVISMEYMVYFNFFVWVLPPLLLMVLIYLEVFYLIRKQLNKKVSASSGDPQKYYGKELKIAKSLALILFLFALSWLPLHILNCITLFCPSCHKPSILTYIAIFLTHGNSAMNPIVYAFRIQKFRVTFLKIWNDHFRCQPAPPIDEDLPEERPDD
Procedure: The affinities of the newly synthesized compounds 7–13 and 17–21 were determined in binding studies at human recombinant A1, A2A, and A3 ARs, stably transfected in Chinese hamster ovary (CHO) cells, using [^3H]CCPA (2-chloro-N^6-cyclopentylAdo), [^3H]NECA (5′-N-ethylcarboxamidoAdo), and [^3H]HEMADO (2-hexynyl-N^6-methylAdo) as respective radioligands. Most of the compounds were also evaluated at A2BARs in a functional study using the GloSensor cAMP assay. The results are reported in Table 1 as Ki values in nM (± standard errors). In the case of A2BARs, Ki-values were calculated from IC50-values determined by the inhibition of NECA-stimulated adenylyl cyclase activity.
Cell culture: The Chinese hamster ovary cells (CHO) stably transfected with the desired ARs were grown in DMEM/F12 medium containing 10% FBS (fetal bovine serum), 100 U/mL penicillin, 100 µg/mL streptomycin, 2.5 μg/mL amphotericin B, 1 mM sodium pyruvate, 0.1 mg/mL genetecina (G418), and incubated at 37 °C in a gaseous mixture of 5% CO2: […].
Preparation of membranes: Cell membranes for binding assays were prepared mechanically detaching the cells from the petri and suspending them in a cold hypotonic buffer (5 mM Tris/HCl, 2 mM EDTA, pH 7.4). The cell suspension was homogenized (Ultra-Turrax, 2 × 15 s at maximum speed) and the homogenate centrifuged for 10 min (4 °C) to 1000× g. The supernatant was subsequently centrifuged for 30 min (4 °C) at 100,000× g and the pellet containing the membrane proteins was re-suspended in a specific buffer for each receptor subtype (A1: 50 mM Tris/HCl, pH 7.4; A2A: 50 mM Tris/HCl, 10 mM MgCl2, pH 7.4; A3: 50 mM Tris/HCl, 10 mM MgCl2, 1 mM EDTA, pH 8.25). The amount of the protein suspension was determined according to the […] using the BCA Protein Assay Kit (Pierce), frozen in liquid nitrogen, and stored at −80 °C.
Binding assays: The dissociation constants of the radioligand (KD) were calculated through saturation assays, while the dissociation constants of the compounds under study (Ki) were determined by competition experiments. All binding data were calculated by nonlinear regression curves using the software GraphPad Prism 5 (GraphPad Software, San Diego, CA, USA). The increasing concentrations of the radioligand saturation binding ([^3H]-CCPA for the A1 receptor subtype, [^3H]-NECA for the A2A receptor subtype, and [^3H]-HEMADO for the A3 receptor) subtype were incubated in a total volume of 250 μL containing 0.2 U/mL of Ado deaminase (ADA) and 12 micrograms of membrane proteins in the specific buffer. In competition experiments for the A1 receptor subtype, each compound was added at increasing concentrations, to the well containing 1 nM of [^3H]-CCPA, to a final volume of 200 μL. The samples were left to incubate for 3 h at room temperature, filtered in a filter 96-well plate (UniFilter GF/C, Perkin-Elmer Life and Analytical Science, Boston, MA) using the FilterMate Cell Harvester (Perkin-Elmer), and washed 3 times with cold distilled water. After drying the filter plate at 40 °C for 30′, they 20 μL of scintillating liquid (Microscint-20, Perkin-Elmer) was added to each well, and then the radioactivity was quantized with the MicroBeta2 Plate Counter (Perkin-Elmer). The conditions for binding experiments at A2A and A3 receptor subtypes were essentially the same as for the A1AR using [^3H]-NECA (N-ethylcarboxyamideAdo) at a concentration of 10 nM and [^3H]-HEMADO (2-(1-hexyne)-N^6-methylAdo) at a concentration of 1 nM as radioligands, respectively. The samples were incubated with 12 micrograms of protein for 3 h at room temperature and filtered as described above.
The non-specific binding was determined in the presence of 1 mM theophylline for the A1AR, or 100 µM R-PIA (N^6-(1-methyl-2-phenylethyl)Ado) for the A2A and A3 receptors.

[1] = system: BV-2 murine microglial cells; test: NO production (Griess assay) in LPS-activated BV-2 cells; assay type: cell-based; conditions: then 100 ng/mL LPS for 24 h
Procedure: To determine the effects of 13 on LPS-induced inflammatory mediators, we initially evaluated the production of NO. BV-2 cells were treated with different concentrations of 13, then, were exposed to 100 ng/mL LPS for 24 h, and the release of NO in the culture medium was measured by Griess assay (Figure 4B).
Cell Cultures and Treatments: BV-2 murine microglial cells (a gift from Prof. Elisabetta Blasi of the University of Modena and Reggio Emilia, Modena, Italy) were maintained at 37 °C and 5% CO2 in a humidified incubator and grown in DMEM supplemented with 10% (v/v) low-endotoxin fetal bovine serum (Euroclone—Milan, Italy), 2 mM L-glutamine, 50 U/mL penicillin, and 50 μg/mL streptomycin (Sigma-Aldrich–Merck, Milan, Italy). […]
Measurement of NO Production: The amount of nitrite accumulation in the culture medium of BV-2 cells was measured using Griess reagent. […] The NO concentration was evaluated by measuring the absorbance at 540 nm with a 96-well microplate spectrophotometer (VICTOR3 V Multilabel Counter; PerkinElmer). Concentration of nitrites released in the medium was determined from the standard curve generated with known concentrations of sodium nitrite. Results are expressed as mean concentration of nitrites (μM) ± SEM, from three different samples.

CCn1c(-c2ccco2)nc2c(N)nc(NCCc3ccc(O)cc3)nc21 [compound 13, 4-(2-((6-Amino-9-ethyl-8-(furan-2-yl)-9H-purin-2-yl)amino)ethyl)phenol]
pKi (human recombinant A1AR): 7.29 | NO level in culture medium vs LPS treated cells ([1]; 1 nM compound): significantly reduced the NO level | NO level in culture medium vs LPS treated cells ([1]; 10 nM compound): significantly reduced the NO level
